According to ChEMBL document CHEMBL5390198, “Scaffold hopping of N-benzyl-3,4,5-trimethoxyaniline: 5,6,7-Trimethoxyflavan derivatives as novel potential anticancer agents modulating hippo signaling pathway” (2023):
The source made the active and inactive calls. The calls are words filed in the database; no cut-off is given here.

Key:
COLO 205 = assay: Growth inhibition of human COLO 205 cells measured after 24 to 72 hrs by SRB method; assay type: functional; details: time 24-72 hrs
KM12 = assay: Growth inhibition of human KM12 cells measured after 24 to 72 hrs by SRB method; assay type: functional; details: time 24-72 hrs
A549 [1] = assay: Induction of apoptosis in human A549 cells assessed as decrease in caspase-3 expression measured after 48 hrs by Western blot analysis; assay type: functional, cell-based; details: dose <= 4.0 µM
A549 [2] = assay: Induction of apoptosis in human A549 cells assessed as decrease in PARP expression measured after 48 hrs by Western blot analysis; assay type: functional, cell-based; details: dose <= 4.0 µM
A549 [3] = assay: Induction of apoptosis in human A549 cells assessed as increase necrotic cell death at 1 to 4 uM measured after 48 hrs by annexin V-FITC/PI staining based flow cytometry analysis; assay type: functional; details: dose 1-4 µM
A549 [4] = assay: Induction of apoptosis in human A549 cells assessed as increase in apoptotic cells measured after 48 hrs by annexin V-FITC/PI staining based flow cytometry analysis; assay type: functional, cell-based; details: dose 1-4 µM
A549 [5] = assay: Induction of apoptosis in human A549 cells assessed as increase in cleaved PARP expression measured after 48 hrs by Western blot analysis; assay type: functional, cell-based; details: dose <= 4.0 µM
A549 [6] = assay: cells; assay type: functional; details: Homo sapiens, time 24-72 hrs
Description: Antiproliferative activity against human A549 cells assessed as inhibition of cell growth at 10 uM measured after 24 to 72 hrs by SRB method relative to control

EKVX = assay: cells; assay type: functional; details: Homo sapiens, time 24-72 hrs
Description: Antiproliferative activity against human EKVX cells assessed as inhibition of cell growth at 10 uM measured after 24 to 72 hrs by SRB method relative to control

HOP-62 = assay: Antiproliferative activity against human HOP-62 cells assessed as inhibition of cell growth at 10 uM measured after 24 to 72 hrs by SRB method relative to control; assay type: functional; details: time 24-72 hrs
HOP-92 = assay: cells; assay type: functional; details: Homo sapiens, time 24-72 hrs
Description: Antiproliferative activity against human HOP-92 cells assessed as inhibition of cell growth at 10 uM measured after 24 to 72 hrs by SRB method relative to control

NCI-H226 = assay: cells; assay type: functional; details: Homo sapiens, time 24-72 hrs
Description: Antiproliferative activity against human NCI-H226 cells assessed as inhibition of cell growth at 10 uM measured after 24 to 72 hrs by SRB method relative to control

NCI-H23 = assay: cells; assay type: functional; details: Homo sapiens, time 24-72 hrs
Description: Antiproliferative activity against human NCI-H23 cells assessed as inhibition of cell growth at 10 uM measured after 24 to 72 hrs by SRB method relative to control

NCI-H322M = assay: Antiproliferative activity against human NCI-H322M cells assessed as inhibition of cell growth at 10 uM measured after 24 to 72 hrs by SRB method relative to control; assay type: functional; details: time 24-72 hrs
NCI-H460 = assay: cells; assay type: functional; details: Homo sapiens, time 24-72 hrs
Description: Antiproliferative activity against human NCI-H460 cells assessed as inhibition of cell growth at 10 uM measured after 24 to 72 hrs by SRB method relative to control

NCI-H522 = assay: Antiproliferative activity against human NCI-H522 cells assessed as inhibition of cell growth at 10 uM measured after 24 to 72 hrs by SRB method relative to control; assay type: functional; details: time 24-72 hrs
MCF7 = assay: Antiproliferative activity against human MCF7 cells assessed as inhibition of cell growth at 10 uM measured after 24 to 72 hrs by SRB method relative to control; assay type: functional; details: time 24-72 hrs
MDA-MB-231 = assay: Antiproliferative activity against human MDA-MB-231 cells assessed as inhibition of cell growth at 10 uM measured after 24 to 72 hrs by SRB method relative to control; assay type: functional; details: time 24-72 hrs
Hs-578T = assay: Antiproliferative activity against human Hs-578T cells assessed as inhibition of cell growth at 10 uM measured after 24 to 72 hrs by SRB method relative to control; assay type: functional; details: time 24-72 hrs
BT-549 = assay: Antiproliferative activity against human BT-549 cells assessed as inhibition of cell growth at 10 uM measured after 24 to 72 hrs by SRB method relative to control; assay type: functional; details: time 24-72 hrs
T47D = assay: Antiproliferative activity against human T47D cells assessed as inhibition of cell growth at 10 uM measured after 24 to 72 hrs by SRB method relative to control; assay type: functional; details: time 24-72 hrs
MDA-MB-468 = assay: Antiproliferative activity against human MDA-MB-468 cells assessed as inhibition of cell growth at 10 uM measured after 24 to 72 hrs by SRB method relative to control; assay type: functional; details: time 24-72 hrs
CCRF-CEM = assay: Antiproliferative activity against human CCRF-CEM cells assessed as inhibition of cell growth at 10 uM measured after 24 to 72 hrs by SRB method relative to control; assay type: functional; details: time 24-72 hrs
HL-60 = assay: Antiproliferative activity against human HL-60 cells assessed as inhibition of cell growth at 10 uM measured after 24 to 72 hrs by SRB method relative to control; assay type: functional; details: time 24-72 hrs
K562 = assay: Antiproliferative activity against human K562 cells assessed as inhibition of cell growth at 10 uM measured after 24 to 72 hrs by SRB method relative to control; assay type: functional; details: time 24-72 hrs
MOLT-4 = assay: Antiproliferative activity against human MOLT-4 cells assessed as inhibition of cell growth at 10 uM measured after 24 to 72 hrs by SRB method relative to control; assay type: functional; details: time 24-72 hrs
RPMI-8226 = assay: Antiproliferative activity against human RPMI-8226 cells assessed as inhibition of cell growth at 10 uM measured after 24 to 72 hrs by SRB method relative to control; assay type: functional; details: time 24-72 hrs
SR = assay: Antiproliferative activity against human SR cells assessed as inhibition of cell growth at 10 uM by measured after 24 to 72 hrs SRB method relative to control; assay type: functional; details: time 24-72 hrs
A549 [7] = assay: Induction of apoptosis in human A549 cells assessed as increase in cleaved caspase-3 expression measured after 48 hrs by Western blot analysis; assay type: functional, cell-based; details: dose <= 4.0 µM
A549 [8] = assay: Induction of apoptosis in human A549 cells assessed as increase in cleaved caspase-7 expression measured after 48 hrs by Western blot analysis; assay type: functional, cell-based; details: dose <= 4.0 µM
A549 [9] = assay: Induction of cell cycle arrest in human A549 cells assessed as increase in number of cells in G2/M phase by flow cytometry analysis; assay type: functional, cell-based; details: dose 1-4 µM
A549 [10] = assay: Induction of cell cycle arrest in human A549 cells assessed as decrease in number of cells in G0/G1 phase at 1 to 4 uM by flow cytometry analysis; assay type: functional, cell-based; details: dose 1-4 µM
A549 [11] = assay: Induction of cell cycle arrest in human A549 cells assessed as decrease in cyclin A1 expression measured after 24 hrs by Western blot analysis; assay type: functional, cell-based; details: dose 1-4 µM
A549 [12] = assay: Induction of cell cycle arrest in human A549 cells assessed as decrease in cyclin B1 expression measured after 24 hrs by Western blot analysis; assay type: functional, cell-based; details: dose 1-4 µM
A549 [13] = assay: Induction of cell cycle arrest in human A549 cells assessed as decrease in cyclin H expression measured after 24 hrs by Western blot analysis; assay type: functional, cell-based; details: dose 1-4 µM
A549 [14] = assay: Induction of cell cycle arrest in human A549 cells assessed as decrease in Cdc25c expression measured after 24 hrs by Western blot analysis; assay type: functional, cell-based; details: dose 1-4 µM
A549 [15] = assay: Induction of cell cycle arrest in human A549 cells assessed as increase in p53 expression measured after 24 hrs by Western blot analysis; assay type: functional, cell-based; details: dose 1-4 µM
A549 [16] = assay: Activation of Hippo signaling pathway in human A549 cells assessed as decrease in YAP incubated for 24 hrs by Western blotting analysis; assay type: cell-based; details: filed as activator, dose <= 4.0 µM
A549 [17] = assay: Activation of Hippo signaling pathway in human A549 cells assessed as increase in […] at upto 4 uM incubated for 24 hrs by Western blotting analysis; assay type: cell-based; details: filed as activator
A549 [18] = assay: Activation of Hippo signaling pathway in human A549 cells assessed as increase in p-MOB1/MOB1 ratio at upto 4 uM incubated for 24 hrs by Western blotting analysis; assay type: cell-based; details: filed as activator
A549 [19] = assay: Inhibition of PI3K/AKT/mTOR signalling pathway in human A549 cells assessed as inhibition of P70S6K phosphorylation measured after 24 hrs by Western blot analysis; assay type: cell-based; details: dose <= 4.0 µM
SF-268 = assay: Growth inhibition of human SF-268 cells measured after 24 to 72 hrs by SRB method; assay type: functional; details: time 24-72 hrs
SF-295 = assay: Growth inhibition of human SF-295 cells measured after 24 to 72 hrs by SRB method; assay type: functional; details: time 24-72 hrs
MDA-MB-435 = assay: Growth inhibition of human MDA-MB-435 cells measured after 24 to 72 hrs by SRB method; assay type: functional; details: time 24-72 hrs
SK-MEL-28 = assay: Growth inhibition of human SK-MEL-28 cells measured after 24 to 72 hrs by SRB method; assay type: functional; details: time 24-72 hrs
ACHN = assay: Growth inhibition of human ACHN cells measured after 24 to 72 hrs by SRB method; assay type: functional; details: time 24-72 hrs
A498 = assay: Growth inhibition of human A498 cells measured after 24 to 72 hrs by SRB method; assay type: functional; details: time 24-72 hrs
SK-OV-3 = assay: Growth inhibition of human SK-OV-3 cells measured after 24 to 72 hrs by SRB method; assay type: functional; details: pooled result: one value given for 7 cell lines, strains, targets or settings, time 24-72 hrs
PC-3 [20] = assay: Growth inhibition of human PC-3 cells measured after 24 to 72 hrs by SRB method; assay type: functional; details: time 24-72 hrs
DU-145 [21] = assay: Growth inhibition of human DU-145 cells measured after 24 to 72 hrs by SRB method; assay type: functional; details: time 24-72 hrs
PC-3 [22] = assay: Potency index, ratio of enzalutamide GI50 to test compound GI50 for growth inhibition of human PC-3 cells measured after 24 to 72 hrs by SRB method; assay type: functional; details: time 24-72 hrs
DU-145 [23] = assay: Potency index, ratio of enzalutamide GI50 to test compound GI50 for growth inhibition of human DU-145 cells measured after 24 to 72 hrs by SRB method; assay type: functional; details: time 24-72 hrs

Q: Which results are given for COc1ccc(NC(=O)c2cccc(C3CCc4c(cc(OC)c(OC)c4OC)O3)c2)cc1 (configuration not stated)?
A: GI50 (COLO 205): 2400 nM; GI50 (KM12): 3470 nM; Activity (A549 [1]): Dose-Dependent Effect; Activity (A549 [2]): Dose-Dependent Effect; Activity (A549 [3]): inactive; Activity (A549 [4]): Dose-Dependent Effect; Activity (A549 [5]): Dose-Dependent Effect; inhibition at 10 µM (A549 [6]): 67.9%; inhibition at 10 µM (EKVX): 53%; inhibition at 10 µM (HOP-62): 69.3%; inhibition at 10 µM (HOP-92): 102%; inhibition at 10 µM (NCI-H226): 52.5%; inhibition at 10 µM (NCI-H23): 47.9%; inhibition at 10 µM (NCI-H322M): 46.1%; inhibition at 10 µM (NCI-H460): 81.8%; inhibition at 10 µM (NCI-H522): 78.2%; inhibition at 10 µM (MCF7): > 60%; inhibition at 10 µM (MDA-MB-231): > 60%; inhibition at 10 µM (Hs-578T): > 60%; inhibition at 10 µM (BT-549): > 60%; inhibition at 10 µM (T47D): > 60%; inhibition at 10 µM (MDA-MB-468): > 60%; inhibition at 10 µM (CCRF-CEM): > 60%; inhibition at 10 µM (HL-60): > 60%; inhibition at 10 µM (K562): > 60%; inhibition at 10 µM (MOLT-4): > 60%; inhibition at 10 µM (RPMI-8226): > 60%; inhibition at 10 µM (SR): > 60%; Activity (A549 [7]): Dose-Dependent Effect; Activity (A549 [8]): Dose-Dependent Effect; Activity (A549 [9]): Dose-Dependent Effect; Activity (A549 [10]): Active; Activity (A549 [11]): Dose-Dependent Effect; Activity (A549 [12]): Dose-Dependent Effect; Activity (A549 [13]): Dose-Dependent Effect; Activity (A549 [14]): Dose-Dependent Effect; Activity (A549 [15]): Dose-Dependent Effect; Activity (A549 [16]): Dose-Dependent Effect; Activity (A549 [17]): Active; Activity (A549 [18]): Active; inhibition (A549 [19]): Dose-Dependent Effect; GI50 (SF-268): 5130 nM; GI50 (SF-295): 2510 nM; GI50 (MDA-MB-435): 520 nM; GI50 (SK-MEL-28): 4070 nM; GI50 (ACHN): 4270 nM; GI50 (A498): 1380 nM; GI50 (SK-OV-3): 2820 nM; GI50 (PC-3 [20]): 1580 nM; GI50 (DU-145 [21]): 2950 nM; fold change (FC) (PC-3 [22]): 12; fold change (FC) (DU-145 [23]): 12
